Experiment [1] addresses T1, Androgen receptor (Homo sapiens, UniProt P10275).
T1 sequence (P10275 whole entry): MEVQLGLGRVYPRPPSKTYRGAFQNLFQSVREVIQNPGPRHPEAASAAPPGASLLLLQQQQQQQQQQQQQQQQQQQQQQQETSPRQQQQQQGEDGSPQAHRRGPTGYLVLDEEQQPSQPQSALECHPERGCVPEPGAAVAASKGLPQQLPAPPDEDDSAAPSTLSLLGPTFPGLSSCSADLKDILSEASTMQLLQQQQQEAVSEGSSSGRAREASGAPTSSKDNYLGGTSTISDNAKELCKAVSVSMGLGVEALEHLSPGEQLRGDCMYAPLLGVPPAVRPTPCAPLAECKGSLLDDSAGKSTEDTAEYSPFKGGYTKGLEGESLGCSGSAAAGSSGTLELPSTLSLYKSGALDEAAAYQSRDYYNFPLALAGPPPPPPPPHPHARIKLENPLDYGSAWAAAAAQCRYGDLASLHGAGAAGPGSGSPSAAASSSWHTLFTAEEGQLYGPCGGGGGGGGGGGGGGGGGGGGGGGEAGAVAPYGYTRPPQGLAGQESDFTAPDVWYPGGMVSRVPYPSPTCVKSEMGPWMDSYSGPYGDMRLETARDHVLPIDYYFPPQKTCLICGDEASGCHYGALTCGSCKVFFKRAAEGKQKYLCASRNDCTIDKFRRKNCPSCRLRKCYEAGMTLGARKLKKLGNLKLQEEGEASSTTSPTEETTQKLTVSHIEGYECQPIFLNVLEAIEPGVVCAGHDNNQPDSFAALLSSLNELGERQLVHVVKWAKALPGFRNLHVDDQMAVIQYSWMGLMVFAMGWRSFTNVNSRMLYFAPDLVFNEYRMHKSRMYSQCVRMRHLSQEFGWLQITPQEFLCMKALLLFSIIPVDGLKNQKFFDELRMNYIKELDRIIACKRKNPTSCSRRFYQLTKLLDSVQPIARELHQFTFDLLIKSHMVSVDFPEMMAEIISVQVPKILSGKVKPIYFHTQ

Experiment [2] addresses Vascular endothelial growth factor receptor 2 (Homo sapiens, UniProt P35968). Type of experiment: functional.
The target in experiment [3] is T2, Androgen receptor (Rattus norvegicus, UniProt P15207).
T2 sequence (P15207 whole entry): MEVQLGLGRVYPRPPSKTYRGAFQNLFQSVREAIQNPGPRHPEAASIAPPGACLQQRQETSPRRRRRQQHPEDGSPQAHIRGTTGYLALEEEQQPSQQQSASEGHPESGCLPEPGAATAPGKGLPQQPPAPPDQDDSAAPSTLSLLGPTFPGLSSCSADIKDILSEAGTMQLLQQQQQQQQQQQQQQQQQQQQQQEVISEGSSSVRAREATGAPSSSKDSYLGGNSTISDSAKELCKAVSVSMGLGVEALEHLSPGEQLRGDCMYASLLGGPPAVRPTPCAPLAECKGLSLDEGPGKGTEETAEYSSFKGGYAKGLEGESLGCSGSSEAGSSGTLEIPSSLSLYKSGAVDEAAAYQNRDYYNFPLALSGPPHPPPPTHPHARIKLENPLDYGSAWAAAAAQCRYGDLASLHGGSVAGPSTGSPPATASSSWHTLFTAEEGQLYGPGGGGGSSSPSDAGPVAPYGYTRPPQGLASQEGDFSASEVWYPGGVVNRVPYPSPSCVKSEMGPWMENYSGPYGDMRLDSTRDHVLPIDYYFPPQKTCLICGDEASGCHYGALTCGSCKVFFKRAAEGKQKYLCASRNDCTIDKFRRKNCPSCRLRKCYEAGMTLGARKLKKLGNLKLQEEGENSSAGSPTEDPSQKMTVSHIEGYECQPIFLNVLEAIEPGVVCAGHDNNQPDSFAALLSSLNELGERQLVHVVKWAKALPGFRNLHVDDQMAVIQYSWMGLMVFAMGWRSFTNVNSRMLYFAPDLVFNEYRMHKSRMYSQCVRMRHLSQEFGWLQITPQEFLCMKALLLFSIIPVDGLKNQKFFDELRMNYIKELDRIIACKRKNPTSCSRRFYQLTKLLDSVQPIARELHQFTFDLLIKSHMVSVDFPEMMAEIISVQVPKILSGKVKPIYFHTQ

In experiment [4] the target is Gamma-aminobutyric acid type B receptor subunit 1 (Homo sapiens, UniProt Q9UBS5).
Gamma-aminobutyric acid type B receptor subunit 1, sequence (Q9UBS5 whole entry): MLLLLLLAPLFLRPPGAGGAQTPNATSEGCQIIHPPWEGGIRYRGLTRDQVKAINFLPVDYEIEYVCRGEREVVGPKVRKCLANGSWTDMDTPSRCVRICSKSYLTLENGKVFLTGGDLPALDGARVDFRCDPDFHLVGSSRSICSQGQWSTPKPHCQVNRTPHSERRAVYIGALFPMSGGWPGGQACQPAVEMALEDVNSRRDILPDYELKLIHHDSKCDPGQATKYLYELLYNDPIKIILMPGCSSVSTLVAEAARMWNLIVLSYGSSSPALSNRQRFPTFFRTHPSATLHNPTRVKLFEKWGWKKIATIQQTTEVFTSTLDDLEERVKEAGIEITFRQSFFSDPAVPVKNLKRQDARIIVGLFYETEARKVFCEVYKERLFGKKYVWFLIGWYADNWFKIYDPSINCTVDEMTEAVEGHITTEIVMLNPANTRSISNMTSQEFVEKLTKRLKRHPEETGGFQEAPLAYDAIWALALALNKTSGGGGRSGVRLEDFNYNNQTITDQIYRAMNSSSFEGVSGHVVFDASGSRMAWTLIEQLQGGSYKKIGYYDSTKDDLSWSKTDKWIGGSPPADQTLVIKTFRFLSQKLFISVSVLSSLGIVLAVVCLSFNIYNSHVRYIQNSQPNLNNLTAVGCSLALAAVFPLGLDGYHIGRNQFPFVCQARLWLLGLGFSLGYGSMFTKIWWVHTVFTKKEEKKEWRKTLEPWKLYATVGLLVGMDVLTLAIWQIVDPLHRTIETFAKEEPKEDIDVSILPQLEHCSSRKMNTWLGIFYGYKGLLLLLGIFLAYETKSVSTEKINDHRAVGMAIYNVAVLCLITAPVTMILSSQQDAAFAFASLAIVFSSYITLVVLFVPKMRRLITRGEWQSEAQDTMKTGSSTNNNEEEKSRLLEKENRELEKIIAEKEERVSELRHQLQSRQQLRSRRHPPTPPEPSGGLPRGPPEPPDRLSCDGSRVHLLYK
Experiment [5] addresses T2, Androgen receptor. Type of experiment: functional.
For a further experiment, the target named is T3, Thromboxane A2 receptor (Homo sapiens, UniProt P21731).
T3 sequence (P21731 whole entry): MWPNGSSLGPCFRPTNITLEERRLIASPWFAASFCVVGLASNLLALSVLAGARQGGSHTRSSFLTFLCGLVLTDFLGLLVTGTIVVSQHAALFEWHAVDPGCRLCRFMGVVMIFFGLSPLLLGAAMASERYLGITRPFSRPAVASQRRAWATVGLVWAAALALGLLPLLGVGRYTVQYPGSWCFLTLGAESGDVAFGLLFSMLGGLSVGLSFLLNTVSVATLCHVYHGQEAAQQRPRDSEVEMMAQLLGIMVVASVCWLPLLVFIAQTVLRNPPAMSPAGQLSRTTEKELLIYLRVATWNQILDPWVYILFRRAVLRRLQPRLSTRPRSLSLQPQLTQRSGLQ
Type of experiment: functional, cell-based.

Experiment [6] concerns the target T4, Estrogen receptor (Homo sapiens, UniProt P03372).
T4 sequence (P03372 whole entry): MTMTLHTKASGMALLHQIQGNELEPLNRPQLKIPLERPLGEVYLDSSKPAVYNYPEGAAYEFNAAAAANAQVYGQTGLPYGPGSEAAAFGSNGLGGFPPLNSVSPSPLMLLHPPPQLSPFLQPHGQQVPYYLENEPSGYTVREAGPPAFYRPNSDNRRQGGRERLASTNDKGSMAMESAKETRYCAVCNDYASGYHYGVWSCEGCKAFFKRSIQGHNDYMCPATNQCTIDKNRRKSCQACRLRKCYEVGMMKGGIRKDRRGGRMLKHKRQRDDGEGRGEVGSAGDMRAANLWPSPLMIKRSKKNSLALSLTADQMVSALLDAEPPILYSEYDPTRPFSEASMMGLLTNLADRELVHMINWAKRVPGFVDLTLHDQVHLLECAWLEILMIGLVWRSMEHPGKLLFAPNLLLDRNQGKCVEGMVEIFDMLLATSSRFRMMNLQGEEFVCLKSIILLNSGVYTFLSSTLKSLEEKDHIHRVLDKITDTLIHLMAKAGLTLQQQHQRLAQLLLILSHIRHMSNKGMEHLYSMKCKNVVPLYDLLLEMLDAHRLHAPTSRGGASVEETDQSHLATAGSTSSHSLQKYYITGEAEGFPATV
It counts as functional.

The target of experiment [7] is T4, Estrogen receptor. Type of experiment: functional. The source holds these as a separate data set.

One may read the AC50 as the concentration giving half of the maximal activity seen. Read a high AC50 as activity only at high concentration.
Further: assay procedure not described here.

Vascular endothelial growth factor receptor 2, sequence (P35968 whole entry): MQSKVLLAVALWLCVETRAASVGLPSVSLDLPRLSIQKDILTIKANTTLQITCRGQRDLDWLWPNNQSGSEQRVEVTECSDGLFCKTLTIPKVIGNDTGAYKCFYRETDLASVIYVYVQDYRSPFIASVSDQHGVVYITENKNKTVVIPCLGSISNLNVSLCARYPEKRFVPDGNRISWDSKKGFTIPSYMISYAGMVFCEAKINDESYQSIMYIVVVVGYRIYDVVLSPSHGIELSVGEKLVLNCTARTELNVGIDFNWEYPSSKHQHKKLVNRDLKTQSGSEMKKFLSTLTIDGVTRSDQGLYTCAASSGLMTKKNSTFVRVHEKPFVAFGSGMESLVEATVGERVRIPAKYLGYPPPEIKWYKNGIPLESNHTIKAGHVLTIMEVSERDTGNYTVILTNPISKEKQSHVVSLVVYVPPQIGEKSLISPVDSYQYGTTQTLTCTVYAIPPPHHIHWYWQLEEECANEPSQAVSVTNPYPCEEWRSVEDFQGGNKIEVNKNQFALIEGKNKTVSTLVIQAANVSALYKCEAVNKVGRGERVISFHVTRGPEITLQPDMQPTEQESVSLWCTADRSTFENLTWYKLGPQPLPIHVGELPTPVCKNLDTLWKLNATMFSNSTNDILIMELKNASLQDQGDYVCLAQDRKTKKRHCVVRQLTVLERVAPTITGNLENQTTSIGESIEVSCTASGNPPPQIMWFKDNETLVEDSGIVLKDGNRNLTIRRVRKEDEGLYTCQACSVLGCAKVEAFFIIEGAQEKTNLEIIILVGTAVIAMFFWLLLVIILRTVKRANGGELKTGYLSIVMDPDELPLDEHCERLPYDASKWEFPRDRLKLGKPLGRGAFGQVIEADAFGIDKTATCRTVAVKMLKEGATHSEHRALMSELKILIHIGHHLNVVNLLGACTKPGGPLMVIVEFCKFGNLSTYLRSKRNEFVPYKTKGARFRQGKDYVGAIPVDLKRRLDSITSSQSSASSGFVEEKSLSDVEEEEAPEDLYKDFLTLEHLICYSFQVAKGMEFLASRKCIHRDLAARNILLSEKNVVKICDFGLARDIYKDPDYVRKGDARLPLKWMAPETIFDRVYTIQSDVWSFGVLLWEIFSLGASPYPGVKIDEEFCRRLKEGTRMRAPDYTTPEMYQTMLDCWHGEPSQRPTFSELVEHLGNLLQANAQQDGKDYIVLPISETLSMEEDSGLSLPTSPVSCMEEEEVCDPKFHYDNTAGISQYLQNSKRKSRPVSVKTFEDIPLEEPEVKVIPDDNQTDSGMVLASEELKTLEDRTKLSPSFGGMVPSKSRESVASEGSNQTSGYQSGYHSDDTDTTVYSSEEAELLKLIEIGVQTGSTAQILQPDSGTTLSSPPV

In the case of `Nc1nc(N)c2nc(-c3ccccc3)c(N)nc2n1`, the AC50 on Androgen receptor [1] is over 30 µM; in experiment [2], over 30 µM; at Androgen receptor [3] it was over 30 µM; in experiment [4], over 10 µM; on Androgen receptor [5], over 30 µM; on Thromboxane A2 receptor, over 30 µM.

With `CO/N=C(\C(=O)N[C@@H]1C(=O)N2C(C(=O)[O-])=C(C[N+]3(C)CCCC3)CS[C@H]12)c1csc(N)n1`, the AC50 is over 300 µM in experiment [2]; 54 µM at Estrogen receptor [6]; over 300 µM on Androgen receptor [5]; over 300 µM at Thromboxane A2 receptor; over 300 µM on Estrogen receptor [7].

For `NC(=O)c1cnccn1` [PYRAZINAMIDE], the AC50 (in experiment [2]; at Thromboxane A2 receptor) was over 30 µM in each case.

With `CC(C)NNC(=O)c1ccncc1` [IPRONIAZID], the concentration at half-maximal activity (AC50) (in experiment [2]; on Estrogen receptor [6]; on Androgen receptor [5]; at Thromboxane A2 receptor; on Estrogen receptor [7]) was over 30 µM throughout.

Take `Oc1ncnc2[nH]ncc12` [ALLOPURINOL]: the AC50 (in experiment [2]; on Thromboxane A2 receptor) was over 30 µM each time.

As for `CC(C)Cc1ccc(CC(=O)O)cc1` [IBUFENAC], the AC50 (in experiment [2]; at Thromboxane A2 receptor) was over 30 µM each time.
